Laboratory results from patent publication US8557816B2, “Aurora kinase modulators and method of use” (Amgen Inc., priority 2007, dated 2013).

Assays:
AuroraA-TPX2 = biological target: T1, AuroraA-TPX2 (Homo sapiens, UniProt O14965); experiment: AuroraA-TPX2 Homogeneous Time Resolved Fluorescent (HTRF) kinase assay; assay type: biochemical; settings: average; read-out: AurA_IC50_IP (uM Avg)
T1 construct: 20 μL of AuroraA-TPX2 KD GST for a final volume of about 41 μL; GST
T1 sequence (O14965 133-383 limits assumed): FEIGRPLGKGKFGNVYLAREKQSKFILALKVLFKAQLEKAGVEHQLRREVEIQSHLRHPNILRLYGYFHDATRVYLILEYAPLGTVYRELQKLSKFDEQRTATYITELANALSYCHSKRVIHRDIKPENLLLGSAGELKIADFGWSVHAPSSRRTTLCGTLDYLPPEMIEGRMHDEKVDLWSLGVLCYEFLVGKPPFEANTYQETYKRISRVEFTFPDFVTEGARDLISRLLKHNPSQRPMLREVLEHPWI
T1 sequence (Q9ULW0 1-43 partner limits assumed): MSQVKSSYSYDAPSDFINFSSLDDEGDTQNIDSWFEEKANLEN
Experimental: AuroraA-TPX2-Homogeneous Time Resolved Fluorescent (HTRF) Kinase Assay:
The Aurora-A HTRF assay begins with Aurora-A in the presence of ATP phosphorylating the biotinylated peptide PLK. The reaction incubates for about 120 min. Detection reagents are added to quench the reaction. These agents stop the reaction by diluting out the enzyme and chelating the metals due to the presence of EDTA. After addition, the assay is incubated overnight to allow the detection reagents to equilibrate.
The AuroraA HTRF assay comprises 1 μL of compound in 100% DMSO, 20 μL of ATP and biotinylated PLK, and 20 μL of AuroraA-TPX2 KD GST for a final volume of about 41 μL. The final concentration of PLK is about 1 μM. […] Buffer conditions are as follows: 60 mM HEPES pH 7.5, 25 mM NaCl, 10 mM MgCl, 2 mM DTT, 0.05% BSA.
(§1) The assay is quenched and stopped with 160 μL of detection reagent. Detection reagents are as follows: Buffer made of 50 mM Tris, pH 7.5, 100 mM NaCl, 3 mM EDTA, 0.05% BSA, 0.1% Tween20. Added to this buffer prior to reading is Steptavidin allophycocyanin (SA-APC) at a final conc in the assay of 0.0005 mg/mL, and europilated anti-phosphoPLK Ab (Eu-anti-PLK) at a final conc of 0.02 nM.
The assay plate is read in either a Discovery or a RubyStar. The eu-anti-PLK is excited at 320 nm and emits at 615 nm to excite the SA-APC which in turn emits at 655 nm.

AuroraB = biological target: T2, AuroraB (Homo sapiens, UniProt Q96GD4); experiment: AuroraB Homogeneous Time Resolved Fluorescent (HTRF) kinase assay; assay type: biochemical; settings: average; read-out: AurB_IC50_IP (uM Avg)
T2 construct: 20 μL of AuroraB FL H is for a final volume of 41 μL; His
Experimental: AuroraB-Homogeneous Time Resolved Fluorescent (HTRF) Kinase Assay:
The AuroraB HTRF assay begins with AuroraB in the presence of ATP phosphorylating the biotinylated peptide Histone H3. The reaction incubates for about 90 min. the reaction is quenched by addition of detection reagents, which stop the reaction by diluting out the enzyme and chelating the metals due to the presence of EDTA. After addition, the assay is incubated for about 60 min to allow detection reagents to equilibrate.
The AuroraB HTRF assay comprises 1 μL of compound in 100% DMSO, 20 μL of ATP and biotinylated Histone H3, and 20 μL of AuroraB FL H is for a final volume of 41 μL. The final concentration of Histone H3 is 0.1 μM. […] Buffer conditions are as follows: 50 mM HEPES pH 7.5, 5 mM NaCl, 0.5 mM MgCl, 0.5 mM MnCl, 2 mM DTT, 0.05% BSA.
as §1, with “0.001” for “0.0005”, “anti-phosphoHistoneH3” for “anti-phosphoPLK”, “(Eu-anti-HisH3)” for “(Eu-anti-PLK)”, “0.064” for “0.02”
The assay plate is read in either a Discovery or a RubyStar. The eu-anti-HisH3 is excited at 320 nm and emits at 615 nm to excite the SA-APC which in turn emits at 655 nm.

T2 sequence (Q96GD4 whole entry): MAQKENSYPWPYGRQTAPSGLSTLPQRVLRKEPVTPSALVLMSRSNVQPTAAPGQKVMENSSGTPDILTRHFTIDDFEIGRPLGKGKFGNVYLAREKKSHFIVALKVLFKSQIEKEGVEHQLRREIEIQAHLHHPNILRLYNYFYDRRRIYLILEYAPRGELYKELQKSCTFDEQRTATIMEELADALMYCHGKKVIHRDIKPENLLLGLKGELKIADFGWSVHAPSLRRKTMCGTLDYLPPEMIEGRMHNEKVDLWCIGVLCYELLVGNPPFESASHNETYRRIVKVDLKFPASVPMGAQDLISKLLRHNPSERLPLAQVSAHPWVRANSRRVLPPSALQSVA

| SMILES | IC50 (AuroraA-TPX2) [µM] | IC50 (AuroraB) [µM] |
| --- | --- | --- |
| N#Cc1cnc2c(Oc3ccc(Nc4nnc(-c5ccccc5)c5ccccc45)cc3)ccnc2c1 [Example 44, 8-(4-(4-phenylphthalazin-1-ylamino)phenoxy)-1,5-naphthyridine-3-carbonitrile] | 0.332 | 0.015 |
| Cn1cc(-c2ccc3nccc(Oc4ccc(Nc5nnc(-c6ccccc6)c6ccccc56)cc4)c3c2)cn1 [Example 45, N-(4-(6-(1-Methyl-1H-pyrazol-4-yl)quinolin-4-yloxy)phenyl)-4-phenylphthalazin-1-amine] | 0.079 | 0.03 |
| NC(=O)c1cc2nccc(Oc3ccc(Nc4nnc(-c5ccccc5)c5ccccc45)cc3)c2s1 [Example 46, 7-(4-(4-phenylphthalazin-1-ylamino)phenoxy)thieno[3,2-b]pyridine-2-carboxamide] | 0.015 | 0.001 |
| COc1ccc(F)cc1-c1nnc(Nc2ccc(Oc3ccnc4cc(C(N)=O)ccc34)cc2)c2ccccc12 [Example 47, 4-(4-(4-(5-fluoro-2-methoxyphenyl)phthalazin-1-ylamino)phenoxy)quinoline-7-carboxamide] | 5 | 0.138 |
| FC(F)Oc1cnc2c(Sc3ccc(Nc4nnc(-c5ccccc5)c5ccccc45)cc3)ccnc2c1 [Example 387, N-(4-(7-(difluoromethoxy)-1,5-naphthyridin-4-ylthio)phenyl)-4-phenylphthalazin-1-amine] | 0.135 | 0.048 |
| Oc1ccc2nccc(Sc3ccc(Nc4nnc(-c5ccc(Cl)cc5)c5ccccc45)cc3)c2c1 [Example 388, 4-(4-(4-(4-Chlorophenyl)phthalazin-1-ylamino)phenylthio)quinolin-6-ol] | 0.02 | 0.003 |
| COCCOCCOc1ccc2nccc(Sc3ccc(Nc4nnc(-c5ccc(Cl)cc5)c5ccccc45)cc3)c2c1 [Example 389, 4-(4-Chlorophenyl)-N-(4-(6-(2-(2-methoxyethoxy)ethoxy)quinolin-4-ylthio)phenyl)phthalazin-1-amine] | 0.021 | 0.022 |
| CS(=O)(=O)CCOc1ccc2nccc(Sc3ccc(Nc4nnc(-c5ccc(Cl)cc5)c5ccccc45)cc3)c2c1 [Example 390, 4-(4-Chlorophenyl)-N-(4-(6-(2-(methylsulfonyl)ethoxy)quinolin-4-ylthio)phenyl)phthalazin-1-amine] | > 125 | > 125 |
| Clc1ccc(-c2nnc(Nc3ccc(Sc4ccnc5ccoc45)cc3)c3ccccc23)nc1 [Example 391, 4-(5-Chloropyridin-2-yl)-N-(4-(furo[3,2-b]pyridin-7-ylthio)phenyl)phthalazin-1-amine] | 0.601 | 0.018 |
| COc1cc2nccc(Oc3ccc(Nc4nnc(-c5ccccc5)c5ccccc45)cc3)c2cc1C#N [Example 392, 7-Methoxy-4-(4-(4-phenylphthalazin-1-ylamino)phenoxy)quinoline-6-carbonitrile] | 0.159 | 0.26 |
| COCCOc1cc2nccc(Oc3ccc(Nc4nnc(-c5ccccc5)c5ccccc45)cc3)c2cc1OC [Example 393, N-(4-(6-Methoxy-7-(2-methoxyethoxy)quinolin-4-yloxy)phenyl)-4-phenylphthalazin-1-amine] | 0.013 | 0.017 |
| COc1cnc2c(Oc3ccc(Nc4nnc(-c5ccc(Cl)c(OCCS(C)(=O)=O)c5)c5ccccc45)cc3)ccnc2c1 [Example 394, 4-(4-Chloro-3-(2-(methylsulfonyl)ethoxy)phenyl)-N-(4-(7-methoxy-1,5-naphthyridin-4-yloxy)phenyl)phthalazin-1-amine] | 0.015 | 0.009 |
| COCCOc1cc(-c2nnc(Nc3ccc(Oc4ccnc5cc(OC)cnc45)cc3)c3ccccc23)ccc1C [Example 395, N-(4-(7-Methoxy-1,5-naphthyridin-4-yloxy)phenyl)-4-(3-(2-methoxyethoxy)-4-methylphenyl)phthalazin-1-amine] | 0.047 | 0.012 |
| COc1cnc2c(Sc3ccc(Nc4nnc(-c5ccn(C)c(=O)c5)c5ccccc45)cc3)ccnc2c1 [Example 396, 4-(4-(4-(7-Methoxy-1,5-naphthyridin-4-ylthio)phenylamino)phthalazin-1-yl)-1-methylpyridin-2(1H)-one] | 0.05 | > 125 |
| Cc1ccc(-c2nnc(Nc3ccc(Sc4ccnc5ccoc45)cc3)c3ccccc23)cc1F [Example 398, 4-(3-Fluoro-4-methylphenyl)-N-(4-(furo[3,2-b]pyridin-7-ylthio)phenyl)phthalazin-1-amine] | 1.73 | 0.059 |
| Nc1ccc2nccc(Sc3ccc(Nc4nnc(-c5ccccc5)c5ccccc45)cc3)c2c1 [Example 399, N-(4-(6-Aminoquinolin-4-ylthio)phenyl)-4-phenylphthalazin-1-amine] | 0.286 | 0.025 |
| COc1cnc2c(Sc3ccc(Nc4nnc(C5=CCNCC5)c5ccccc45)cc3)ccnc2c1 [Example 401, N-(4-(7-Methoxy-1,5-naphthyridin-4-ylthio)phenyl)-4-(1,2,3,6-tetrahydropyridin-4-yl)phthalazin-1-amine] | 0.847 | 0.052 |
| COc1cnc2c(Sc3ccc(Nc4nnc(OC)c5ccccc45)cc3)ccnc2c1 [Example 402, 4-Methoxy-N-(4-(7-methoxy-1,5-naphthyridin-4-ylthio)phenyl)phthalazin-1-amine] | 0.167 | 0.015 |
| COc1cnc2c(Sc3ccc(Nc4nnc(OCCC5CCCCN5)c5ccccc45)cc3)ccnc2c1 (centres unmarked) [Example 403, N-(4-(7-Methoxy-1,5-naphthyridin-4-ylthio)phenyl)-4-(2-(piperidin-2-yl)ethoxy)phthalazin-1-amine] | 0.239 | 0.005 |
| COc1cnc2c(Sc3ccc(Nc4nnc(C#N)c5ccccc45)cc3)ccnc2c1 [Example 404, 4-(4-(7-Methoxy-1,5-naphthyridin-4-ylthio)phenylamino)phthalazine-1-carbonitrile] | 0.447 | 0.009 |
| O=c1ccc2nccc(Sc3ccc(Nc4nnc(-c5ccc(Cl)cn5)c5ccccc45)cc3)c2[nH]1 [Example 405, 8-(4-(4-(5-Chloropyridin-2-yl)phthalazin-1-ylamino)phenylthio)-1,5-naphthyridin-2(1H)-one] | 0.042 | 0.007 |
| COc1cc2nccc(Sc3ccc(Nc4nnc(-c5ccc(Cl)cc5)c5ccccc45)cc3)c2[nH]c1=O [Example 406, 8-(4-(4-(4-Chlorophenyl)phthalazin-1-ylamino)phenylthio)-3-methoxy-1,5-naphthyridin-2(1H)-one] | 0.034 | 0.186 |
| COc1cnc2c(Oc3ccc(Nc4nnc(-c5cc(CO)cs5)c5ccccc45)cc3)ccnc2c1 [Example 407, (5-(4-(4-(7-Methoxy-1,5-naphthyridin-4-yloxy)phenylamino)phthalazin-1-yl)thiophen-3-yl)methanol] | 0.016 | 0.004 |
| COc1cnc2c(Oc3ccc(Nc4nnc(-c5cc(CF)cs5)c5ccccc45)cc3)ccnc2c1 [Example 408, 4-(4-(Fluoromethyl)thiophen-2-yl)-N-(4-(7-methoxy-1,5-naphthyridin-4-yloxy)phenyl)phthalazin-1-amine] | 0.024 | 0.009 |
| Oc1cnc2c(Oc3ccc(Nc4nnc(-c5ccc(Cl)cc5)c5ccccc45)cc3)ccnc2c1 [Example 409, 8-(4-(4-(4-Chlorophenyl)phthalazin-1-ylamino)phenoxy)-1,5-naphthyridin-3-ol] | 0.02 | 0.005 |
